Measured values from patent US20260325504A1, “Genetically Engineered Human Pituitary Corticotroph Tumor Organoids Exhibit Divergent Responses to Selective Glucocorticoid Receptor Modulators” (Corcept Therapeutics Incorporated, priority 2022, published 2026).
“Also recorded” adds a separate entry of the source.

Tests used:
Assay type in all cases: cell-based, human
iPSC^USP48MV organoids = test: Spectral flow cytometry, Zombie positive cells (cell death), iPSCUSP48MV organoids; details: 48 h, FIGS. 8D
Experimental: Sonic Hedgehog (SHH) was withdrawn from the organoid growth media 16 hours prior to treatment. The experimental treatment groups included: vehicle (Veh), mifepristone (500 nM, Selleckchem S2606), GANT61 (5 μM, Stemcell Technologies 73692), ketoconazole (Keto, 10 μM, Selleckchem S1353), pasireotide (Pas, 100 nM, Target Mol TP2207-SB001), octreotide (Oct, 100 nM, Selleckchem P1017), mifepristone plus GANT61, mifepristone plus Keto, mifepristone plus Pas, relacorilant (500 nM, Corcept Therapeutics CORT125134), relacorilant plus Pas, relacorilant plus Oct, or dexamethasone (Dexa, 100 nM, SIGMA S4902). In the combination treatments, cultures were pretreated with the GANT61, Keto, Pas or Oct for 2 hours prior to treatment with mifepristone or Rela. PitNET tissue derived organoids hPITO36, hPITO37, hPITO38, hPITO39, and hPITO40 were treated with the following experimental conditions: Vehicle (1), pasireotide (2), relacorilant (3), relacorilant & pasireotide (4), mifepristone (5), mifepristone & pasireotide (6). The IC50 values used for each hPITO line for each drug were determined based on dose responses (FIG. 12). […]
The multicolor flow cytometry antibody panel was designed using the Cytek® Full Spectrum Viewer online tool to calculate the similarity index. […] Data was acquired using the Cytek® Aurora, analyzed using Cytobank Premium software (Beckman Coulter).

SSTR5 = test: Spectral flow cytometry, SSTR5 positive cells, hPITOs; details: hPITO, 48 h, FIGS. 9G
Text: 1.3 Generation and Culture of Human PitNET Tissue Organoids (hPITOs)
Patients undergoing planned transsphenoidal surgery for PitNETs were identified in the outpatient neuroendocrinology and neurosurgery clinics and collected by the St. Joseph's Hospital and Barrow Neurological Institute Biobank under the collection protocol PHXA-05TS038, and outcomes data protocol PHXA-0004-72-29 with approval of the Institutional Review Board (IRB) and patient consent. De-identified samples were shipped in collection and transport media (Table 3) to the Zavros laboratory (University of Arizona) for processing within 24 hours of collection. Resected PitNET tissues were washed with Dulbeccos Phosphate Buffered Saline (DPBS) supplemented with 1× Penicillin/Streptomycin, 1× Kanamycin and 1× Amphotericin/Gentamycin, minced into smaller pieces, and incubated with digestion buffer (Dulbecco's Modified Eagle Medium/Nutrient Mixture F-12 (DMEM/F12) supplemented with 0.4% Collagenase 2, 0.1% Hyaluronic Acid, 0.03% Trypsin). The tissue was incubated with Accutase (Thermo Fisher Scientific) for a further 5 minutes, and the cells were pelleted and washed with DPBS supplemented with antibiotics. Dissociated cells were then seeded as Matrigel™ domes in culture dishes and overlaid with growth media (Table 4). Media was replaced every 3 days and organoids were harvested for downstream experiments or passaged after 15 days of culture (FIG. 1B).
Sonic Hedgehog (SHH) was withdrawn from the organoid growth media 16 hours prior to treatment. […] The IC50 values used for each hPITO line for each drug were determined based on dose responses (FIG. 12). […]

SSTR2 = test: Differential expression of SSTR2 (qRT-PCR) in iPSC generated pituitary organoids; details: for SSTR2 induction relative to SSTR5: PitNET organoids, summary; for induction in SSTR2 expression, mifepristone compared to relacorilant / expression of SSTR2: iPSC organoids; for induction in SSTR2 expression, mifepristone compared to relacorilant: 500 nM each, FIG. 5A; for expression of SSTR2: 500 nM, vs vehicle
Experimental: Sonic Hedgehog (SHH) was withdrawn from the organoid growth media 16 hours prior to treatment. The experimental treatment groups included: vehicle (Veh), mifepristone (500 nM, Selleckchem S2606), GANT61 (5 μM, Stemcell Technologies 73692), ketoconazole (Keto, 10 μM, Selleckchem S1353), pasireotide (Pas, 100 nM, Target Mol TP2207-SB001), octreotide (Oct, 100 nM, Selleckchem P1017), mifepristone plus GANT61, mifepristone plus Keto, mifepristone plus Pas, relacorilant (500 nM, Corcept Therapeutics CORT125134), relacorilant plus Pas, relacorilant plus Oct, or dexamethasone (Dexa, 100 nM, SIGMA S4902). In the combination treatments, cultures were pretreated with the GANT61, Keto, Pas or Oct for 2 hours prior to treatment with mifepristone or Rela. PitNET tissue derived organoids hPITO36, hPITO37, hPITO38, hPITO39, and hPITO40 were treated with the following experimental conditions: Vehicle (1), pasireotide (2), relacorilant (3), relacorilant & pasireotide (4), mifepristone (5), mifepristone & pasireotide (6). The IC50 values used for each hPITO line for each drug were determined based on dose responses (FIG. 12). All organoid cultures were treated for 48 hours prior to analysis.
RNA was extracted from PitNET tissue or iPSC generated organoids using TRI Reagent® (Molecular Research Center Inc TR118) and the High Capacity cDNA Reverse Transcription Kit (Applied Biosystems, Foster City, CA) was used for cDNA synthesis of RNA following the recommended protocol. For each sample, 60 ng RNA was reverse transcribed to yield approximately […] total cDNA that was then used for the qRT-PCR. Pre-designed real-time polymerase chain reaction assays were purchased for the following genes: TPit (Thermo Fisher Scientific 4331182 Hs00193027), SF1 (Thermo Fisher Scientific 4331182 Hs00610436), SSTR2 (Thermo Fisher Scientific 4331182 Hs00265624_s1), SSTR5 (Thermo Fisher Scientific 4331182 Hs00990407_s1), POMC (Thermo Fisher Scientific 4331182 Hs01596743_ml), hPRT (Thermo Fisher Scientific 4331182 Hs02800695_ml), and FKBP5 (Thermo Fisher Scientific 4331182 Hs01561006_m1). Polymerase chain reaction amplifications were performed in a total volume of 20 μL containing 20× TaqMan Expression Assay primers, 2× TaqMan Universal Master Mix (Applied Biosystems, TaqMan® Gene Expression Systems), and cDNA template. Each polymerase chain reaction amplification was performed in triplicate wells in a StepOne Real-Time PCR System (Applied Biosystems) by using the following conditions: 500C 2 minutes, 95° C. 10 minutes, 95° C. 15 seconds (denature) and 60° C. 1 minute (anneal/extend) for 40 cycles. Fold change was calculated as the following: (Ct-Ct high)=n target, 2ntarget/2nHPRT=fold change where Ct=threshold cycle. The results were expressed as average fold change in or differential gene expression relative to control, with HPRT used as an internal control according to Livak and Schmittgen.

| SMILES | cell death (Zombie positive cells) (iPSC^USP48MV organoids) | percentage of SSTR5 positive cells (SSTR5) | SSTR2 induction relative to SSTR5 (SSTR2) | SSTR2 induction relative to SSTR5 (SSTR2; listed as Mifepristone) | induction in SSTR2 expression, mifepristone compared to relacorilant (SSTR2; 48 h) | induction in SSTR2 expression, mifepristone compared to relacorilant (SSTR2; 48 h, listed as Mifepristone) | expression of SSTR2 (SSTR2; 48 h) | differential expression of SSTR2 (SSTR2; iPSCctrl organoids, compound alone, 48 h, FIG. 5C, D) | magnitude of SSTR5 induction, relacorilant vs mifepristone (SSTR5) |
| --- | --- | --- | --- | --- | --- | --- | --- | --- | --- |
| CC#C[C@]1(O)CC[C@H]2[C@@H]3CCC4=CC(=O)CCC4=C3[C@@H](c3ccc(N(C)C)cc3)C[C@@]21C [mifepristone, 11β-(4-dimethylaminophenyl)-17ß-hydroxy-17α-(1-propynyl)-estra-4,9-dien-3-one] | not observed | significant increase | predominantly induced SSTR2 expression; also recorded: significantly greater induction in SSTR2 than SSTR5 | induces SSTR2 with greater magnitude compared to SSTR5 | preferentially induced the expression of SSTR2 | significantly greater induction in SSTR2 expression when compared to relacorilant | significant induction; also recorded: significantly induced the expression | significantly induced | – |
| Cn1cc(S(=O)(=O)N2CCC3=Cc4c(cnn4-c4ccc(F)cc4)C[C@]3(C(=O)c3cc(C(F)(F)F)ccn3)C2)cn1 [relacorilant, (R)-(1-(4-fluorophenyl)-6-((1-methyl-1H-pyrazol-4-yl)sulfonyl)-4,4a,5,6,7,8-hexahydro-1H-pyrazolo[3,4-g]isoquinolin-4a-yl) (4-(trifluoromethyl)pyridin-2-yl) methanone] | significant increase in Zombie positive cells | significant increase; also recorded: significantly upregulated | – | – | – | – | significant induction; also recorded: significantly induced the expression | – | significantly greater than that of mifepristone |
